{
  "source": "paper PMC10507085",
  "about": "“Pharmacological inhibition of TBK1/IKKε blunts immunopathology in a murine model of SARS-CoV-2 infection” (Nature Communications, 2023)",
  "assay_in_all_cases": "biochemical",
  "parameters_in_all_cases": "KINOMEscan competition binding, DNA-tagged kinase against immobilised ligand, qPCR read-out",
  "key": {"AKT2": {"target": "AKT2 (Homo sapiens, UniProt P31751)", "sequence (P31751 whole entry)": "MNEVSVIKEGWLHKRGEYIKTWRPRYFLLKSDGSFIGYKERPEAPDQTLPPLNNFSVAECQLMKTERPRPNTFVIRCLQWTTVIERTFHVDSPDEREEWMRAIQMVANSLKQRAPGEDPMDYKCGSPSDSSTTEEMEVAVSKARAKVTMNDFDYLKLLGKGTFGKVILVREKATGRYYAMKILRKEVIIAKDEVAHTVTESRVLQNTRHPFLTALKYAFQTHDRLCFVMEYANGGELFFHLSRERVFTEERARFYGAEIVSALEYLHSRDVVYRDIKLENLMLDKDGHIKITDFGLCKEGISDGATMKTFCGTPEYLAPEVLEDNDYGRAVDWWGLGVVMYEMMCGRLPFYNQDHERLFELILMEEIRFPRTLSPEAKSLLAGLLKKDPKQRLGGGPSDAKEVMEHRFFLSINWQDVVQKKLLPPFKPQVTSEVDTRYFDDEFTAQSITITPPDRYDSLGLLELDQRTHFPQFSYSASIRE", "details": "read-out: Percent Control"}, "MAPK1": {"target": "MAPK1 (Homo sapiens, UniProt P28482)", "details": "read-out: Percent Control"}, "CSNK1D": {"target": "CSNK1D (Homo sapiens, UniProt P48730)", "details": "read-out: Percent Control"}, "NUAK2": {"target": "NUAK2 (Homo sapiens, UniProt Q9H093)", "sequence (Q9H093 whole entry)": "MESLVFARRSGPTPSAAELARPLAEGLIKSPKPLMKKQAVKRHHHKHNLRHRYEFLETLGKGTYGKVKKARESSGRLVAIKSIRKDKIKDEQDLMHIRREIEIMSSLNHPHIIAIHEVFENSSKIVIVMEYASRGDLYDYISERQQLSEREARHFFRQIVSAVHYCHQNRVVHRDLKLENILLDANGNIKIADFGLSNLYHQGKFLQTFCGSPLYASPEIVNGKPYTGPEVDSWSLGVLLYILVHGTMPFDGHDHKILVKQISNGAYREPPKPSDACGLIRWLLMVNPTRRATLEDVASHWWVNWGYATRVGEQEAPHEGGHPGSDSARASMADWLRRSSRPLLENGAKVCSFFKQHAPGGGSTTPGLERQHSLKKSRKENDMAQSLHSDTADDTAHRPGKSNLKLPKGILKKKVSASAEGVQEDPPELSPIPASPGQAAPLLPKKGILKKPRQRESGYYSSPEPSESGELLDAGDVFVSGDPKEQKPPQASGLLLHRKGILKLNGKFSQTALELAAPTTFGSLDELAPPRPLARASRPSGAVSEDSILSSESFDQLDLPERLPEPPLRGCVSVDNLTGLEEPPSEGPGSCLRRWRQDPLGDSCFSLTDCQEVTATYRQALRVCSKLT", "details": "read-out: Percent Control"}, "BMP2K": {"target": "BMP2K (Homo sapiens, UniProt Q9NSY1)", "sequence (Q9NSY1 whole entry)": "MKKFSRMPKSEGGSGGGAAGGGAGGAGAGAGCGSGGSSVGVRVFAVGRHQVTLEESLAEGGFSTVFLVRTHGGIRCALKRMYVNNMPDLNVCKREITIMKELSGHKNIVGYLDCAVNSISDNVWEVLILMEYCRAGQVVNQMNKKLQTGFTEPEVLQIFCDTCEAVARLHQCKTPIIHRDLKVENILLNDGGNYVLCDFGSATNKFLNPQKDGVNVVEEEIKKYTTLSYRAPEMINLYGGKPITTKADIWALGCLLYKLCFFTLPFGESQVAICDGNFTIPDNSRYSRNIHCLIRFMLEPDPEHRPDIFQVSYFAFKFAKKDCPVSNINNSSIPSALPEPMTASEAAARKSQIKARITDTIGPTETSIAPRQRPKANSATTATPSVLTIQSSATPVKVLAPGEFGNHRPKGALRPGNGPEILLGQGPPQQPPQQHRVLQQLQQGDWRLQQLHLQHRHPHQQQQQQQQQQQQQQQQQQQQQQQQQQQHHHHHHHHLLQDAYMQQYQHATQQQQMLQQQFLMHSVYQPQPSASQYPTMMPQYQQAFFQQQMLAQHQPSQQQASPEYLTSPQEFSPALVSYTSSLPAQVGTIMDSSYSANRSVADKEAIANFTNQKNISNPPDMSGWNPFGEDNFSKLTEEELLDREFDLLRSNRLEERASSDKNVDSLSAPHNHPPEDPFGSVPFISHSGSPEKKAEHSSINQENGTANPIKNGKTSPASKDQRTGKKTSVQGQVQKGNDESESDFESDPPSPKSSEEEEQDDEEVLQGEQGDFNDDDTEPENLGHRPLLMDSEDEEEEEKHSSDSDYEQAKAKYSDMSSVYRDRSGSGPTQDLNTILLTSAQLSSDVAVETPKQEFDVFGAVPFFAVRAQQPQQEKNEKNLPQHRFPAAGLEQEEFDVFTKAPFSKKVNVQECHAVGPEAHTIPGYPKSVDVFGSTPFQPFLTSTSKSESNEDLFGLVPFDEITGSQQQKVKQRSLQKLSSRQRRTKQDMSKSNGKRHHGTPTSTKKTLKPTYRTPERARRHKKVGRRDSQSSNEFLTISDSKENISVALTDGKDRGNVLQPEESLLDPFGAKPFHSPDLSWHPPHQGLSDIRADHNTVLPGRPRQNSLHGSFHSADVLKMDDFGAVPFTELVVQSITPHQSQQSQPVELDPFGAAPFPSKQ", "details": "read-out: Percent Control"}, "LATS2": {"target": "LATS2 (Homo sapiens, UniProt Q9NRM7)", "details": "read-out: Percent Control"}, "MAP3K9": {"target": "MAP3K9 (Homo sapiens, UniProt P80192)", "details": "read-out: Percent Control"}, "DYRK2": {"target": "DYRK2 (Homo sapiens, UniProt Q92630)", "sequence (Q92630 whole entry)": "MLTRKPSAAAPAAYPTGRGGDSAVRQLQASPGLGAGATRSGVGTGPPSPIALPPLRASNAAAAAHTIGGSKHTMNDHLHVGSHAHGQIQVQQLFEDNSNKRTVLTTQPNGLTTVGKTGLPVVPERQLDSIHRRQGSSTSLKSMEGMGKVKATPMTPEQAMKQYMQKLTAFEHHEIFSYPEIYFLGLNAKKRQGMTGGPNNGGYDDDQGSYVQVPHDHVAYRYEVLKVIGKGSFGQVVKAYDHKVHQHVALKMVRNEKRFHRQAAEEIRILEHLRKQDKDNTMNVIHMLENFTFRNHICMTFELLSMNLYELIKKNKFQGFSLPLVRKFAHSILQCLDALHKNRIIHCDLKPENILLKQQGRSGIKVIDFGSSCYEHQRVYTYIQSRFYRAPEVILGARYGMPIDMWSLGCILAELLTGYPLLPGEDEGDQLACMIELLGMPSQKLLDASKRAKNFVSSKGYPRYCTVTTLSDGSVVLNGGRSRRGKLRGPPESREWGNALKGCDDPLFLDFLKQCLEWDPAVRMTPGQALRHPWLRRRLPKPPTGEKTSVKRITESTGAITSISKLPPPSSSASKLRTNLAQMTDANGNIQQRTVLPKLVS", "outline": "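Compound tested as an 11-point, 3-fold dilution series (DMSO stocks at 100×, 1× in assay) for displacing DNA-tagged kinase from an immobilised ligand. Kinase remaining on the ligand is read out by qPCR.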"}, "PLK3": {"target": "PLK3 (Homo sapiens, UniProt Q9H4B4)", "sequence (Q9H4B4 whole entry)": "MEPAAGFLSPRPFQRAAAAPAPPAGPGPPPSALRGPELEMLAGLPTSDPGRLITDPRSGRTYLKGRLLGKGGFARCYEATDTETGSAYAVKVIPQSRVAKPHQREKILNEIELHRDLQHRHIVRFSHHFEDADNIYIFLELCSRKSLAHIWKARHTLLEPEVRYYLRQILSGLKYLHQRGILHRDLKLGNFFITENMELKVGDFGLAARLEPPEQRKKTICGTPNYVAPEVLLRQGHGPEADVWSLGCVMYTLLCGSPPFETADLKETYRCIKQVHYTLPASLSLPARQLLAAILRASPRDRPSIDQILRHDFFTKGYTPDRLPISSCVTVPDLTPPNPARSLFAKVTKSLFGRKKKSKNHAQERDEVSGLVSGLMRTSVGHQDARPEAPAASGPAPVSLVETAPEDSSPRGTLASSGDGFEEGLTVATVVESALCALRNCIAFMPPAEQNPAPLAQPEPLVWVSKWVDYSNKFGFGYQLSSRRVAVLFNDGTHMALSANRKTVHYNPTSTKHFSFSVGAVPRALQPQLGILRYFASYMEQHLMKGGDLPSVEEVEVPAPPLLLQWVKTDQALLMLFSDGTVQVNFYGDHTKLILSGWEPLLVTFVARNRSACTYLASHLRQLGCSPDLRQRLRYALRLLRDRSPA", "details": "read-out: Percent Control"}, "CDK4": {"target": "CDK4 (Homo sapiens, UniProt P11802)", "details": "read-out: Percent Control"}, "FRK": {"target": "FRK (Homo sapiens, UniProt P42685)", "details": "read-out: Percent Control"}, "ERBB2": {"target": "ERBB2 (Homo sapiens, UniProt P04626)", "details": "read-out: Percent Control"}, "MYLK4": {"target": "MYLK4 (Homo sapiens, UniProt Q86YV6)", "details": "read-out: Percent Control"}, "SRMS": {"target": "SRMS (Homo sapiens, UniProt Q9H3Y6)", "details": "read-out: Percent Control"}, "MAP4K5": {"target": "MAP4K5 (Homo sapiens, UniProt Q9Y4K4)", "sequence (Q9Y4K4 whole entry)": "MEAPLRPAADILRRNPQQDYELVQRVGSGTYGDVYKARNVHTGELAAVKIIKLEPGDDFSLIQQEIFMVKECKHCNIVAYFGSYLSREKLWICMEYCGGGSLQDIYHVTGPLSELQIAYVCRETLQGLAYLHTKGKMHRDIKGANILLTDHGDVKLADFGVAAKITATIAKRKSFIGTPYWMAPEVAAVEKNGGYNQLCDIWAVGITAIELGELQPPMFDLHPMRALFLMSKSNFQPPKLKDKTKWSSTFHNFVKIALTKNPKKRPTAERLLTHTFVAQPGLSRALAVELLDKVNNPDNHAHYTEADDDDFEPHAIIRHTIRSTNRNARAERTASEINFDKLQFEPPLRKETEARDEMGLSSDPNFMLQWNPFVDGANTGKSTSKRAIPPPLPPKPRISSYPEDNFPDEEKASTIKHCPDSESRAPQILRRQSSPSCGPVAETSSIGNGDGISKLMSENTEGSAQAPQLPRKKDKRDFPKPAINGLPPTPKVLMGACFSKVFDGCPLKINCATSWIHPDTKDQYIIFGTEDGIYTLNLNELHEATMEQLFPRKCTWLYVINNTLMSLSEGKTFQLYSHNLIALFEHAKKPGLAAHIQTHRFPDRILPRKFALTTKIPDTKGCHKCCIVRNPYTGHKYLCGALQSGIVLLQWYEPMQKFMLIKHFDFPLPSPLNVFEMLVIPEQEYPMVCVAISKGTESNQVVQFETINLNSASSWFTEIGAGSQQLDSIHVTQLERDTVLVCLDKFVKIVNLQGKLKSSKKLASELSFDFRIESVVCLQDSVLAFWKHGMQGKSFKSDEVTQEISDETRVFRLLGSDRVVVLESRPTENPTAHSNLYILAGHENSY", "details": "read-out: Percent Control"}, "MAP4K4": {"target": "MAP4K4 (Homo sapiens, UniProt O95819)", "details": "read-out: Percent Control"}, "MAPK9": {"target": "MAPK9 (Homo sapiens, UniProt P45984)", "sequence (P45984 whole entry)": "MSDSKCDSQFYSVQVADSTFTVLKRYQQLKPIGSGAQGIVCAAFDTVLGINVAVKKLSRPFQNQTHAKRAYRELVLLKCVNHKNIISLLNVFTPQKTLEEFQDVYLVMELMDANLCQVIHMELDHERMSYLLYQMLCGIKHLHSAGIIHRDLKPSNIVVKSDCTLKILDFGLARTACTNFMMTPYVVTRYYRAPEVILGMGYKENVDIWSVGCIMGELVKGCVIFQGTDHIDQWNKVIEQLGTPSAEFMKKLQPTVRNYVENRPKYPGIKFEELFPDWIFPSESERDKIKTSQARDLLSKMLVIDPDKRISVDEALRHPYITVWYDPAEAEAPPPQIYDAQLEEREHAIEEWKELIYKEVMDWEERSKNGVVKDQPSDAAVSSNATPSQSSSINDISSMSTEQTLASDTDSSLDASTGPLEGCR", "details": "read-out: Percent Control"}, "DAPK2": {"target": "DAPK2 (Homo sapiens, UniProt Q9UIK4)", "details": "read-out: Percent Control"}, "MAP3K1": {"target": "MAP3K1 (Homo sapiens, UniProt Q13233)", "details": "read-out: Percent Control"}, "CSNK1G2": {"target": "CSNK1G2 (Homo sapiens, UniProt P78368)", "details": "read-out: Percent Control"}},
  "note": "pKd: −log10 of the molar value.",
  "data": [
    {"smiles": "Oc1ccc(C2=Cc3ccc(O)cc3OC2)cc1", "note": "[compound 1, idronoxil]", "values": [
      {"measurement": "remaining binding at 10 µM", "setting": "AKT2", "result": 90, "unit": "%"},
      {"measurement": "remaining binding at 10 µM", "setting": "MAPK1", "result": 100, "unit": "%"},
      {"measurement": "remaining binding at 10 µM", "setting": "CSNK1D", "result": 58, "unit": "%"},
      {"measurement": "remaining binding at 10 µM", "setting": "NUAK2", "result": 68, "unit": "%"},
      {"measurement": "remaining binding at 10 µM", "setting": "BMP2K", "result": 86, "unit": "%"},
      {"measurement": "remaining binding at 10 µM", "setting": "LATS2", "result": 55, "unit": "%"},
      {"measurement": "remaining binding at 10 µM", "setting": "MAP3K9", "result": 82, "unit": "%"},
      {"measurement": "pKd", "setting": "DYRK2", "result": 5.57},
      {"measurement": "remaining binding at 10 µM", "setting": "DYRK2; read-out: Percent Control", "result": 11, "unit": "%"},
      {"measurement": "remaining binding at 10 µM", "setting": "PLK3", "result": 100, "unit": "%"},
      {"measurement": "remaining binding at 10 µM", "setting": "CDK4", "result": 100, "unit": "%"},
      {"measurement": "remaining binding at 10 µM", "setting": "FRK", "result": 78, "unit": "%"},
      {"measurement": "remaining binding at 10 µM", "setting": "ERBB2", "result": 88, "unit": "%"},
      {"measurement": "remaining binding at 10 µM", "setting": "MYLK4", "result": 26, "unit": "%"},
      {"measurement": "remaining binding at 10 µM", "setting": "SRMS", "result": 68, "unit": "%"},
      {"measurement": "remaining binding at 10 µM", "setting": "MAP4K5", "result": 70, "unit": "%"},
      {"measurement": "remaining binding at 10 µM", "setting": "MAP4K4", "result": 47, "unit": "%"},
      {"measurement": "remaining binding at 10 µM", "setting": "MAPK9", "result": 93, "unit": "%"},
      {"measurement": "remaining binding at 10 µM", "setting": "DAPK2", "result": 56, "unit": "%"},
      {"measurement": "remaining binding at 10 µM", "setting": "MAP3K1", "result": 76, "unit": "%"},
      {"measurement": "remaining binding at 10 µM", "setting": "CSNK1G2", "result": 82, "unit": "%"}
    ]}
  ]
}
